Values after ≈ are worked out from the molar mass of the structure shown. Values joined by “and” are separate entries in the source; they are usually repeats but may differ in a detail not shown here. Identical values can stand only once. Marks after values point to notes of the source that are not given here. Where a SMILES comes first, the peptide text is derived from it. The star is where a group is joined. Myristoyl = CCCCCCCCCCCCCC(=O)*
Experiments:
MTT assay, cytotoxicity = type: cell-based, human; settings: HaCaT, 24 h incubation at 37 °C, 0.5–500 μg/mL, six replicates per concentration, repeated at least twice
Method: To evaluate the cytotoxicity of the test peptides (IC50), the classic MTT assay on 96-well plates was performed for human keratinocytes (HaCaT) which were acquired from the ATCC. The assay was based on colorimetric determination of the cell metabolic activity where the color intensity reflected the number of live cells that could be measured spectrophotometrically. The cell line was cultured in a Dulbecco’s modified Eagle Medium (Invitrogen) supplemented with 10% fetal bovine serum (v/v), 100 units/mL of penicillin, 100 μg/mL of streptomycin, and 2 mM L-glutamine and was kept at 37 °C in a humidified 5% CO2 incubator. Briefly, a day after plating of 500 cells per well, a series of concentrations (0.5–500 μg/mL) of the test compounds were applied. DMSO was added to the control cells at a final concentration of 1.0% (v/v), which was related to the maximum concentration of the solvent compounds used in the experiment. After 24 h of incubation at 37 °C (humidified 5% CO2 incubator) with the peptides, a medium containing 1 mg/mL of MTT was added to the wells up to a final concentration of 0.5 mg/mL. Subsequently, the plates were incubated at 37 °C for 4 h. Then, the medium was aspirated, and the formazan product was solubilized with DMSO. The background absorbance at 630 nm was subtracted from that at 570 nm for each well (Epoch, BioTek Instruments, Winooski, VT, USA). Six replicates were conducted for each concentration. All experiments were repeated at least twice and the resulting IC50 values were calculated with a GraFit 7 software (v. 7.0, Erithacus, Berkley, CA, USA).
The selectivity indexes were calculated for all the strains as IC50/MIC. According to IC50, in most cases, glycosylation caused only a slight decrease in toxicity. However, in contrast with SI calculated for HC50, the differences between USCLs and gUSCLs are not so distinct. […] Moreover, toxicity of USCLs and gUSCLs is high and exceeds their antimicrobial activity. The lipopetides were not selective against Gram-negative strains (K. pneumoniae, A. baumannii, P. aeruginosa, K. aerogenes) over human cells. A few USCLs were selective (SI > 1) against E. faecium and S. aureus with SI up to 1.87; and some gUSCLs were selective against E. faecium but not against S. aureus, with SI between 0.63 and 1.73. […] In this case, SI of gUSCLs was noticeably […] than that of corresponding parent USCLs (2.07, 1.99, 2.67 vs. 2.53, 2.36, 3.46, respectively). Selectivity indexes were plotted against adjusted retention time (Figures S15–S21). A moderate linear correlation was found in USCLs and K. pneumoniae, C. glabrata, and gUSCLs and K. pneumoniae, K. aerogenes (R^2 between 0.6064 and 0.6481). A relatively high linear correlation was obtained for USCLs and K. aerogenes (R^2 of 0.8214) and also for gUSCLs and C. glabrata (R^2 of 0.9223).

[1] = tested on: human red blood cells (RBCs); settings: cited from earlier work
[2] = Determination of peptide hydrophobicity with RP-HPLC (adjusted retention time); type: physicochemical; settings: RP-HPLC as measure of hydrophobicity; Waters X-Bridge Shield RP-18 3.0 × 100 mm, 3.5 μm; linear 20–80% acetonitrile in water over 30 min, 0.1% TFA; 0.5 mL/min; 25.0 °C; peptide 1 g/L in water (0.1% TFA); UV 214 nm; triplicate
Method: To determine peptide hydrophobicity, a Waters Alliance e2695 system with a Waters 2998 PDA Detector was used. All analyses were carried out on a Waters X-Bridge Shield RP-18 column (3.0 × 100 mm, 3.5 μm particle size, 130 Å pore size). The peptides were dissolved in water (0.1% TFA, v/v) up to a concentration of 1 g/L. UV detection at 214 nm was used, and samples (10 μL) were eluted with a linear 20–80% acetonitrile gradient in deionized water over 30 min at 25.0 ± 0.1 °C. The mobile phase flow rate was 0.5 mL/min. Both eluents contained 0.1% (v/v) of TFA. Each peptide sample was analyzed in triplicate. Maximum standard deviation and coefficient of variation were 0.046 and 0.23%, respectively.
After synthesis and purification, all the products were analyzed with MS and HPLC to confirm purity and identity of the compounds. […] The chromatographic analyses were performed with RP-HPLC; retention time refers to hydrophobicity of the lipopeptide.

P. aeruginosa ATCC 9027 = settings: planktonic cells, analyses performed in the previous study; cited from earlier work
Description: Table 2 Antimicrobial activity (MIC [µg/mL]) of lipopeptides 1–18 against planktonic cells. | column: P. aeruginosa ATCC 9027

[3] = tested on: A. baumannii ATCC BAA 1605; settings: planktonic cells, analyses performed in the previous study; cited from earlier work
Description: Table 2 Antimicrobial activity (MIC [µg/mL]) of lipopeptides 1–18 against planktonic cells. | column: A. baumannii ATCC BAA 1605

K. aerogenes ATCC 13048 = settings: planktonic cells, analyses performed in the previous study; cited from earlier work
Description: Table 2 Antimicrobial activity (MIC [µg/mL]) of lipopeptides 1–18 against planktonic cells. | column: K. aerogenes ATCC 13048

E. faecium ATCC 700221 = settings: planktonic cells, analyses performed in the previous study; cited from earlier work
Description: However, enhanced activity with elongation of the hydrocarbon chain length in fatty acid residue and the change of serine position to 2 or 3 could be seen. […] Generally, the lo ...

[4] = tested on: K. pneumoniae ATCC 700603; settings: planktonic cells, analyses performed in the previous study; cited from earlier work
Description: Table 2 Antimicrobial activity (MIC [µg/mL]) of lipopeptides 1–18 against planktonic cells. | column: K. pneumoniae ATCC 700603

S. aureus ATCC 33591 = settings: planktonic cells, analyses performed in the previous study; cited from earlier work
Description: Table 2 Antimicrobial activity (MIC [µg/mL]) of lipopeptides 1–18 against planktonic cells. | column: S. aureus ATCC 33591

C. glabrata ATCC 15126 = type: cell-based, Candida glabrata; settings: ATCC 15126, 24 h
Method: The Acinetobacter baumannii ATCC BAA-1605, Enterococcus faecium ATCC 700221, Klebsiella aerogenes ATCC 13048, Klebsiella pneumoniae ATCC 700603, Pseudomonas aeruginosa ATCC 9027, Staphylococcus aureus ATCC 33591, Candida glabrata ATCC 15126, strains were acquired from the American Type Culture Collection (ATCC). All the strains were stored at −80 °C in Roti-Store cryo vials and were transferred into fresh Mueller–Hinton broth (MHB, Becton Dickinson, Warsaw, Poland) for bacteria or RPMI-1640 (Sigma-Aldrich, Steinheim, Germany) for fungi before the tests and incubated for 24 h at 37 °C. Then, the cultures were seeded on the Mueller–Hinton agar (BioMaxima, Lublin, Poland) or Sabouraud dextrose agar (SDA, BioMaxima, Lublin, Poland) plates, respectively, and incubated as just mentioned. These agar cultures were used for further microbiological assays. Cell densities for all assays were adjusted spectrophotometrically (Multiskan GO Microplate Spectrophotometer, Thermo Fisher Scientific, Vantaa, Finland) at 600 and 530 nm for bacteria and fungi, respectively.
The MICs were determined using a broth microdilution method according to the Clinical and Laboratory Standard Institute guidelines. For this purpose, initial inoculums of bacteria (5 × 10^5 CFU/mL) in MHB and yeasts (2 × 10^3 CFU/mL) in RPMI-1640 with 2% D-glucose were exposed to the ranging concentration of lipopeptides (1–512 μg/mL) and incubated at 37 °C for 18 h and 24 h, respectively. The experiments were conducted on 96-well microtiter polystyrene plates (Kartell, Italy). The growth was assessed visually after incubation and the MIC was assumed as the lowest peptide concentration at which a noticeable growth of microorganisms was inhibited. All experiments were conducted in triplicate.

P. aeruginosa biofilm = tested on: P. aeruginosa biofilm; set-up: method as in PMID 33804887; settings: P. aeruginosa biofilm (Gram-negative strains); previous studies; cited from earlier work
K. pneumoniae biofilm = tested on: K. pneumoniae biofilm; set-up: method as in PMID 33804887; settings: K. pneumoniae biofilm (Gram-negative strains); previous studies; cited from earlier work
S. aureus biofilm = tested on: S. aureus biofilm; set-up: method as in PMID 33804887; settings: S. aureus ATCC 33591 biofilm; previous studies; cited from earlier work
A. baumannii biofilm = tested on: A. baumannii biofilm; set-up: method as in PMID 33804887; settings: A. baumannii biofilm (Gram-negative strains); previous studies; cited from earlier work

Compound | IC50 (MTT assay, cytotoxicity) | HC50 (hemolytic activity) [1] | Adjusted Retention Time [2] | MIC (P. aeruginosa ATCC 9027) | MIC [3] | MIC (K. aerogenes ATCC 13048) | MIC (E. faecium ATCC 700221) | MIC [4] | MIC (S. aureus ATCC 33591) | MIC (C. glabrata ATCC 15126) | MBEC (P. aeruginosa biofilm) | MBEC (K. pneumoniae biofilm) | MBEC (S. aureus biofilm) | MBEC (A. baumannii biofilm)
CCCCCCCCCCCCCC(=O)N[C@@H](CO)C(=O)N[C@@H](CCCNC(=N)N)C(=O)N[C@@H](CCCNC(=N)N)C(N)=O [Peptide 1, C14-SRR-NH2] (Myristoyl-Ser-Arg-Arg-NH2) | 1.41 ± 0.29 µg/mL (≈ 2.25 µM) | 41.54 ± 1.29 µg/mL | 16.55 min | 32 * µg/mL | 32 * µg/mL | 128 * µg/mL | 16 µg/mL and 16 * µg/mL | 128 * µg/mL | 16 * µg/mL | 32 µg/mL (≈ 51 µM) |  |  |  | 
C12-RR-NH2 [Peptide C12-RR-NH2] |  |  |  |  |  |  |  |  |  |  | 512 µg/mL | 512 µg/mL | 64 µg/mL | 512 µg/mL

Source: publication PMC9855884, “Glycosylated Lipopeptides—Synthesis and Evaluation of Antimicrobial Activity and Cytotoxicity” (Biomolecules, 2023)
